{"source": "patent US20230151432A1", "about": "“KIF18A INHIBITORS FOR TREATMENT OF NEOPLASTIC DISEASES” (AMGEN INC., priority 2020, published 2023)", "key": {"CAL-51 tumors": {"test_system": "CAL-51 tumors", "test": "CAL-51 Tumor Xenograft Efficacy Study (IP)", "format": "in vivo, mouse", "details": "100 mg/kg IP once daily for 18 consecutive days", "protocol": "Tumor volume and body weight assessment performed as described above. After the final dose on day 36, plasma pharmacokinetic analysis was performed as described above. All data analysis was performed as described above."}, "OVCAR-8 tumors": {"test_system": "OVCAR-8 tumors", "test": "OVCAR-8 Tumor Xenograft Efficacy Study (IP)", "format": "in vivo, mouse", "protocol": "Animals were dosed IP daily with vehicle alone, C9 (50 or 100 mg/kg), or C12 (25 or 50 mg/kg). […] Tumor volume and body weight assessment performed as described above. After the final dose on day 46, plasma pharmacokinetic analysis was performed as described above except blood was drawn by retro-orbital bleed method."}, "OVCAR-3 tumors": {"test_system": "OVCAR-3 tumors", "test": "OVCAR-3 Tumor Xenograft Efficacy Study (IP)", "details": "100 mg/kg IP once daily for 18 consecutive days", "procedure": "Mice were injected with human OVCAR-3 cells (5.0×10^6) subcutaneously in the right flank. Animals with established tumors were randomized into four groups (n=10 per group) with average tumor volume of 130 mm^3. […] Treatment started on day 24 post-tumor implantation and treatment terminal on day 42. Tumor volumes and body weights were recorded twice per week using a digital caliper and analytical lab scale, respectively. […] The percentage of tumor growth inhibition (% TGI) was calculated as % TGI relative to vehicle control: % TGI=100−[(Treated−Initial Volume)/(Control−Initial Volume)×100]. The percentage of tumor regression (% TR) was calculated as % TR compared final tumor volume to the initial tumor volume: % TR=100−[(Final Volume)/(Initial Volume)×100]. Data was graphed using GraphPad Prism 7.05. Statistical analysis was performed on treatment groups for tumor growth and blood counts using repeated measures ANOVA and one-way ANOVA, respectively, followed by Dunnett's multiple comparisons test."}, "[1]": {"test_system": "human foreskin fibroblast (hFSF) cells", "test": "BrdU incorporation assay in normal cells", "format": "cell-based", "details": "48 hours", "protocol": "(§1) The effect KIF18A inhibitor treatment has on proliferation of normal somatic cells (e.g., not neoplastic cells) was tested by assaying proliferation of human bone marrow mononuclear cells (HBMNCs), primary human foreskin fibroblast cells (hFSF) and human mammary epithelial cells via a 5-bromo-2′-deoxyuridine (BrdU) incorporation assay in which BrdU, an analog of the nucleoside thymidine, is used to identify proliferating cells (Payton et. al., Molecular Cancer Therapeutics, 17(12):2575-85 (2018)). Cells were analyzed on BD LSRFortessa flow cytometer using BD FACSDiva software (BD Biosciences), and post-acquisition data analysis was performed using FSC-Express software (De Novo). The percentage of BrdU positive gated events on the stacked DNA content histograms were reported."}, "[2]": {"test_system": "human mammary epithelial cells (HMEC)", "test": "BrdU incorporation assay in normal cells", "format": "cell-based", "details": "48 hours", "protocol": "as §1"}, "MDA-MB-157 TNBC cells": {"test_system": "MDA-MB-157 TNBC cells", "test": "Imaging-based Centrosome Count Assay (CCA)", "format": "cell-based", "details": "Homo sapiens, 24 hours of treatment", "protocol": "To analyze the effects of a KIF18A inhibitor on the mitotic phenotype of cancer cells, an imaging-based Centrosome Count Assay (CCA) carried out using a KIF18A inhibitor was carried out. In preparation for plating, MDA-MB-157 TNBC cells were resuspended seven times through a 10 mL syringe with 18-G needle to create a single-cell suspension. Cells were seeded at a density of 30 000 cells per well using the BRAVO Automated Liquid Handling Platform (Agilent Technologies, Santa Clara, Calif.) into Corning 96-well Flat Clear Bottom Black Polystyrene plate (Corning, N.Y.) in 100 μL of complete media and grown for 24 hours. […] Imaging data was acquired on Cellomics ArrayScan VTI HCS Reader (SN03090745F, ThermoFisher Scientific) using the SpotDetector.V4 Assay protocol (Ver 6.6.0 (Build 8153) with a 20×objective, experiment #1 collected 100-fields per well; experiment #2 collected 67-fields per well). […] The percentage of mitotic objects with >2 pericentrin spots (proxy for centrosome number) was determined for each well. […] This represents the total valid p-Histone H3 positive mitotic object count based on the set fluorescence intensity threshold using alexa-647 (channel 3). • (3) % Selected Object pHH3. […]"}}, "note": "Read-outs that look alike come from different tables or passages of the source.", "data": [{"smiles": "CC(C)(C)NS(=O)(=O)c1cccc(NC(=O)c2ccc(S(=O)(=O)NC(C)(C)C)cc2N2CCC3(CC2)CC3)c1", "note": "[Compound C9, 4-(N-(tert-butyl)sulfamoyl)-N-(3-(N-(tert-butyl)sulfamoyl)phenyl)-2-(6-azaspiro[2.5]octan-6-yl)benzamide]", "values": [{"measurement": "effect on tumor growth relative to vehicle control", "setting": "CAL-51 tumors", "result": "no observable effect"}, {"measurement": "tumor regression", "setting": "OVCAR-8 tumors; 50 mg/kg IP once daily for 18 consecutive days", "result": 16, "unit": "%"}, {"measurement": "tumor regression", "setting": "OVCAR-8 tumors; 100 mg/kg IP once daily for 18 consecutive days", "result": 73, "unit": "%"}, {"measurement": "tumor regression", "setting": "OVCAR-3 tumors", "result": 73, "unit": "%"}]}, {"smiles": "CC(C)(CO)Nc1ccc(C(=O)Nc2cccc(S(=O)(=O)C3CCCC3)c2)c(N2CCC3(CC2)CC3)n1", "note": "[Compound C11, N-(3-(cyclopentylsulfonyl)phenyl)-6-((1-hydroxy-2-methylpropan-2-yl)amino)-2-(6-azaspiro[2.5]octan-6-yl)nicotinamide]", "values": [{"measurement": "BrdU incorporation relative to DMSO treated cells", "setting": "[1]", "result": "not impacted at concentrations <10 μM"}, {"measurement": "BrdU incorporation relative to DMSO treated cells", "setting": "[2]", "result": "not impacted at concentrations <10 μM"}]}, {"smiles": "Cc1cc(NC(=O)c2ccc(NS(=O)(=O)CCO)cc2N2CCC3(CC2)CC3)nc(N2CCC(F)(F)CC2)n1", "note": "[Compound C14, N-(2-(4,4-Difluoropiperidin-1-yl)-6-methylpyrimidin-4-yl)-4-((2-hydroxyethyl)sulfonamido)-2-(6-azaspiro[2.5]octan-6-yl)benzamide]", "values": [{"measurement": "EC50", "setting": "MDA-MB-157 TNBC cells; read-out: EC50, increase in p-Histone H3 positive cells", "result": 79.4, "unit": "nM"}, {"measurement": "EC50", "setting": "MDA-MB-157 TNBC cells; read-out: EC50, pericentrin spotting (>2 spots per mitotic object)", "result": 52.2, "unit": "nM"}]}]}
